Source: PubChem BioAssay (NCI)
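Tested at 5 concentrations; 48 h exposure; 96-well plates; endpoints linearly interpolated, else capped at highest concentration. At the TGI there is no net growth.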

Legend:
Assay in all cases: DTP human tumour cell line panel, 48 h
[1] = system: HCC-2998 colon
[2] = system: OVCAR-4 ovarian
[3] = system: SR leukemia
[4] = system: SK-MEL-5 melanoma
[5] = system: UACC-62 melanoma
[6] = system: SF-295 CNS
[7] = system: CAKI-1 renal
[8] = system: TK-10 renal
[9] = system: DU-145 prostate
[10] = system: HOP-92 NSCLC
[11] = system: SF-268 CNS
[12] = system: SNB-75 CNS
[13] = system: COLO 205 colon
[14] = system: IGROV1 ovarian
[15] = system: OVCAR-8 ovarian
[16] = system: MDA-MB-435
[17] = system: UACC-257 melanoma
[18] = system: K-562 leukemia
[19] = system: RXF 393 renal
[20] = system: A549 NSCLC
[21] = system: M14 melanoma
[22] = system: SK-OV-3 ovarian
[23] = system: HL-60(TB) leukemia
[24] = system: LOX IMVI melanoma
[25] = system: MOLT-4 leukemia
[26] = system: MCF7 breast
[27] = system: 786-0 renal
[28] = system: SK-MEL-28 melanoma
[29] = system: CCRF-CEM leukemia
[30] = system: RPMI-8226 leukemia
[31] = system: MDA-MB-231 breast
[32] = system: SN12C renal
[33] = system: MALME-3M melanoma
[34] = system: SW-620 colon
[35] = system: HCT-15 colon
[36] = system: MDA-N
[37] = system: HOP-62 NSCLC
[38] = system: EKVX NSCLC
[39] = system: T-47D breast
[40] = system: PC-3 prostate
[41] = system: NCI-H23 lung
[42] = system: HT29 colon
[43] = system: KM12 colon
[44] = system: HS 578T breast
[45] = system: UO-31 renal
[46] = system: HCT-116 colon
[47] = system: SNB-19 CNS
[48] = system: NCI-H226 lung
[49] = system: OVCAR-3 ovarian
[50] = system: OVCAR-5 ovarian
[51] = system: A498 renal
[52] = system: SK-MEL-2 melanoma
[53] = system: NCI/ADR-RES ovarian
[54] = system: U251 CNS
[55] = system: ACHN renal

CCOC(=O)N1CCC2C(=C(C)C(C)C3=C2C(=O)c2ccccc2C3=O)C1 (stereo not drawn)
TGI [1]: > 10 µM
TGI [2]: > 10 µM
TGI [3]: > 10 µM
TGI [4]: 4.27 µM
TGI [5]: > 10 µM
TGI [6]: > 10 µM
TGI [7]: > 10 µM
TGI [8]: > 10 µM
TGI [9]: > 10 µM
TGI [10]: > 10 µM
TGI [11]: > 10 µM
TGI [12]: > 10 µM
TGI [13]: > 10 µM
TGI [14]: > 10 µM
TGI [15]: > 10 µM
TGI [16]: 4.53 µM
TGI [17]: > 10 µM
TGI [18]: > 10 µM
TGI [19]: > 10 µM
TGI [20]: > 10 µM
TGI [21]: > 10 µM
TGI [22]: > 10 µM
TGI [23]: 5.15 µM
TGI [24]: > 10 µM
TGI [25]: > 10 µM
TGI [26]: > 10 µM
TGI [27]: > 10 µM
TGI [28]: > 10 µM
TGI [29]: > 10 µM
TGI [30]: > 10 µM
TGI [31]: > 10 µM
TGI [32]: > 10 µM
TGI [33]: 6.77 µM
TGI [34]: > 10 µM
TGI [35]: > 10 µM
TGI [36]: > 10 µM
TGI [37]: > 10 µM
TGI [38]: > 10 µM
TGI [39]: > 10 µM
TGI [40]: > 10 µM
TGI [41]: > 10 µM
TGI [42]: > 10 µM
TGI [43]: > 10 µM

C=CCC(NCc1ccccc1)[C@H](OCc1ccccc1)[C@@H]1COC(C)(C)O1 (stereo partly drawn)
TGI [2]: > 100 µM
TGI [3]: 55 µM
TGI [4]: 55.2 µM
TGI [5]: > 100 µM
TGI [44]: > 100 µM
TGI [6]: 99.6 µM
TGI [8]: 70.8 µM
TGI [9]: > 100 µM
TGI [45]: 83.1 µM
TGI [10]: 49 µM
TGI [46]: > 100 µM
TGI [11]: > 100 µM
TGI [12]: > 100 µM
TGI [13]: 41.3 µM
TGI [14]: > 100 µM
TGI [15]: > 100 µM
TGI [16]: > 100 µM
TGI [17]: 58.1 µM
TGI [18]: 56.4 µM
TGI [47]: > 100 µM
TGI [20]: > 100 µM
TGI [48]: 34.1 µM
TGI [21]: > 100 µM
TGI [22]: > 100 µM
TGI [24]: 72 µM
TGI [49]: > 100 µM
TGI [25]: 83.1 µM
TGI [50]: > 100 µM
TGI [26]: > 100 µM
TGI [27]: > 100 µM
TGI [28]: > 100 µM
TGI [51]: > 100 µM
TGI [29]: 69.9 µM
TGI [52]: 46 µM
TGI [30]: 44.4 µM
TGI [31]: > 100 µM
TGI [53]: > 100 µM
TGI [32]: > 100 µM
TGI [54]: > 100 µM
TGI [33]: 76.7 µM
TGI [34]: > 100 µM
TGI [35]: 64.9 µM
TGI [36]: > 100 µM
TGI [37]: > 100 µM
TGI [38]: > 100 µM
TGI [40]: > 100 µM
TGI [41]: > 100 µM
TGI [55]: > 100 µM
TGI [42]: 27.1 µM
TGI [43]: > 100 µM
